Entries after “also recorded” stand apart in the source; their conditions may differ.
Columns and labels:
α-glucosidase [1] = target: T1, α-glucosidase (Saccharomyces cerevisiae, UniProt P53341); conditions: cited from earlier work
T1 construct: purchased Sigma-Aldrich

[2] = target: T2, α-Glucosidase (Saccharomyces cerevisiae, EC3.2.1.20) (Saccharomyces cerevisiae, UniProt P53341); experiment: In vitro α-glucosidase inhibition assay; format: biochemical
T2 construct: purchased Sigma-Aldrich
Method: α-Glucosidase (Saccharomyces cerevisiae, EC3.2.1.20, 20 U/mg) and the substrate, […] (p-NPG) were purchased from Sigma-Aldrich and the assay was performed exactly according to our previous report. In this respect, various concentrations of each synthesized compound dissolved in DMSO, were added to potassium phosphate buffer (50 mM, pH 6.8) including enzyme (at final concentration of 0.1 U/mL), in a 96-well plate. After a 10-min incubation at 37 °C, p-NPG was added to each well to achieve final concentration of 4 mM. Then, the plate was re-incubated at 37 °C for 20 min. It should be noted that the final concentration of DMSO in each enzymatic solution was 10%. Finally, the change in the absorbance was measured at 405 nm using spectrophotometer (Synergy HTX Multi-Mode Microplate Reader–BioTek, Germany). […] The percentage of inhibition for compounds and control was calculated using Eq. (1):1 Inhibition%=ODnegative control-ODsample/ODnegative control×100OD=optical density at 405 nm.
IC50 values were calculated from the nonlinear regression curve using the Logit method.

α-glucosidase [3] = target: T1, α-glucosidase; experiment: Enzyme kinetic studies (Lineweaver–Burk plot); format: biochemical; conditions: for Ki: p-NPG 2–16 mM
Source text: A Lineweaver–Burk plot was generated to identify the type of inhibition and the Michaelis–Menten constant.

α-glucosidase [4] = target: T1, α-glucosidase; experiment: Fluorescence spectroscopy measurements; format: binding; conditions: 9e 0–1.0 μM, excitation 280 nm, emission maximum 340 nm, phosphate buffer 50 mM pH 6.8
Method: Compound 9e at different concentrations (0–1.0 µM) was added into the 3 mL solution containing a fixed amount of α-glucosidase (0.1 U/mL). All mixtures were held for 10 min to equilibrate before measurements. Then, the fluorescence emission spectra were measured from 300 to 450 nm at the excitation wavelength of 280 nm on a Synergy HTX multi-mode reader (Biotek Instruments, Winooski, VT, USA) equipped with a 1.0 cm quartz cell holder. The fluorescence spectra of the buffer containing compound 9e in the absence of the enzyme were subtracted as the background fluorescence.

α-glucosidase [5] = target: T1, α-glucosidase; experiment: Thermodynamic analysis (thermal denaturation followed by fluorescence)
Method: Thermodynamic analysis was performed as described by Mojtabavi et al., the fluorescent intensity data were plotted as a function of temperature, and the thermodynamic profile was computed[48],[49]. Therefore, the denatured fraction (FD) of protein was calculated from Eq. (2), assuming a two-state mechanism for the protein denaturation:2 FD=YN-Yobs/YN-YD.
In Eq. (2), Yobs, YN, and YD are the observed […] characteristics of a fully native and denatured conformation, respectively. Equation (3) was used to calculate the apparent equilibrium constant (K) for a reversible denaturation process between native and denatured protein states:3 K=FD/1-FD=Yobs-YD/YN-YD.
The standard Gibbs free energy change (ΔG°) for protein denaturation is given by the Eq. (4):4 ΔG^^∘=GD^∘-GN^∘=-RTlnK, where T and R are the absolute temperature and the universal gas constant, respectively. The Gibbs free energy (ΔG°) is the most valuable standard of protein conformational stability in thermal denaturation. The integrated Gibbs–Helmholtz equation was utilized for measuring changes in the Gibbs energy of a system as a function of temperature (Eq. (5)):5 ΔG^^∘=ΔHm^∘1-T/Tm-ΔCpTm-T+TLnT/Tm, where ΔCp is the heat capacity of protein denaturation. The ΔCp (11.6 kJ/mol K) of the α-glucosidase denaturation was taken from van der Kamp et al. report. In thermal denaturation, Tm is the temperature at which the protein is half denatured. ΔH°m and ΔS°m are the standard enthalpy and entropy of denaturation. The standard entropy was calculated from a relation between the standard […] of denaturation as bellow: ΔH=TmΔS.

T1 sequence (P53341 whole entry): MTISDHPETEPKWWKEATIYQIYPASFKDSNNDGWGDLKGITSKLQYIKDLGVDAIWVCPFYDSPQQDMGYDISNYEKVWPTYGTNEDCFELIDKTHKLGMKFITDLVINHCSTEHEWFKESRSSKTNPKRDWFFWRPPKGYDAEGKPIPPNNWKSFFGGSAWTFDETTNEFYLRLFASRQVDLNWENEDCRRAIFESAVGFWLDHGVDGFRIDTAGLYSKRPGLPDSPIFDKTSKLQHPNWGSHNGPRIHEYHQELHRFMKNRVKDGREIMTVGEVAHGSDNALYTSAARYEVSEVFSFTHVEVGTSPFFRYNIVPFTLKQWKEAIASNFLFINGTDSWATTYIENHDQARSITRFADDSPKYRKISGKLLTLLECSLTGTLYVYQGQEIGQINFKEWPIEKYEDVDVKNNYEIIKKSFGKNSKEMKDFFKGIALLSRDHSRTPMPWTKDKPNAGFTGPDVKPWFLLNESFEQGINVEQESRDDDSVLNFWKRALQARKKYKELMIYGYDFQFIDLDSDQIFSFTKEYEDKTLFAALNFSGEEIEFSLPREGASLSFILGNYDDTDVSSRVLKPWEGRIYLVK
T2 sequence (P53341 whole entry): as above

In the case of `CCc1ccc(NC(=O)Cn2cc(COc3ccc(-c4nc5ccccc5[nH]4)cc3)nn2)cc1` [B], the mode of inhibition (α-glucosidase [1]) is listed as “competitive”.

For `COc1cc(C=NNC(=O)CC#N)ccc1OCc1cn(Cc2ccccc2)nn1` [Compound 9a, N′-(4-((1-benzyl-1H-1,2,3-triazol-4-yl)methoxy)-3-methoxybenzylidene)-2-cyanoacetohydrazide], the IC50 [2] was over 750 µM.

With `COc1cc(C=NNC(=O)CC#N)ccc1OCc1cn(Cc2ccccc2F)nn1` [Compound 9b, 2-Cyano-N′-(4-((1-(2-fluorobenzyl)-1H-1,2,3-triazol-4-yl)methoxy)-3-methoxybenzylidene)acetohydrazide] the type of inhibition (α-glucosidase [3]) was “uncompetitive inhibition; also recorded: uncompetitively”, the Ki (α-glucosidase [3]) was 0.43 µM and the IC50 [2] was 1.5 ± 0.01 µM.

Work on `COc1cc(C=NNC(=O)CC#N)ccc1OCc1cn(Cc2ccc(F)cc2)nn1` [Compound 9c, 2-Cyano-N′-(4-((1-(4-fluorobenzyl)-1H-1,2,3-triazol-4-yl)methoxy)-3-methoxybenzylidene)acetohydrazide] yielded an IC50 [2] of 9.73 ± 0.3 µM.

Compound `COc1cc(C=NNC(=O)CC#N)ccc1OCc1cn(Cc2ccccc2Cl)nn1` [Compound 9d, N′-(4-((1-(2-chlorobenzyl)-1H-1,2,3-triazol-4-yl)methoxy)-3-methoxybenzylidene)-2-cyanoacetohydrazide] has an IC50 [2] of 14 ± 0.8 µM.

With `COc1cc(C=NNC(=O)CC#N)ccc1OCc1cn(Cc2ccc(Cl)cc2)nn1` [Compound 9e, N′-(4-((1-(4-chlorobenzyl)-1H-1,2,3-triazol-4-yl)methoxy)-3-methoxybenzylidene)-2-cyanoacetohydrazide] the “change of α-glucosidase fluorescence” value (α-glucosidase [4]) was “significant increase in fluorescence intensity”, the “Tm of α-glucosidase” value (α-glucosidase [5]; compound 9e 0.25 µM) was 316 K and the “ΔHm° of α-glucosidase denaturation” value (α-glucosidase [5]; compound 9e 0.25 µM) was 94.47 kJ/mol. For the same compound, the “ΔSm° of α-glucosidase denaturation” value (α-glucosidase [5]; compound 9e 0.25 µM) was 298.95 J mol^−1 K^−1, the “Tm of α-glucosidase” value (α-glucosidase [5]; compound 9e 0.50 µM) was 315 K and the “ΔHm° of α-glucosidase denaturation” value (α-glucosidase [5]; compound 9e 0.50 µM) was 112.86 kJ/mol. The “ΔSm° of α-glucosidase denaturation” value (α-glucosidase [5]; compound 9e 0.50 µM) was 358.28 J mol^−1 K^−1, the “Tm of α-glucosidase” value (α-glucosidase [5]; compound 9e 0.75 µM) was 313 K and the “ΔHm° of α-glucosidase denaturation” value (α-glucosidase [5]; compound 9e 0.75 µM) was 177.09 kJ/mol. The “ΔSm° of α-glucosidase denaturation” value (α-glucosidase [5]; compound 9e 0.75 µM) was 565.76 J mol^−1 K^−1, the “Tm of α-glucosidase” value (α-glucosidase [5]; compound 9e 1.0 µM) was 311 K and the “ΔHm° of α-glucosidase denaturation” value (α-glucosidase [5]; compound 9e 1.0 µM) was 597.50 kJ/mol. For the same compound, the “ΔSm° of α-glucosidase denaturation” value (α-glucosidase [5]; compound 9e 1.0 µM) was 1921.22 J mol^−1 K^−1, the type of inhibition (α-glucosidase [3]) was “uncompetitive inhibition; also recorded: uncompetitively” and the Ki (α-glucosidase [3]) was 0.24 µM. The IC50 [2] was 1 ± 0.01 µM and the “fold better potency than the standard drug acarbose” value [2] was 754 fold.

Work on `COc1cc(C=NNC(=O)CC#N)ccc1OCc1cn(Cc2ccccc2C)nn1` [Compound 9f, 2-Cyano-N′-(3-methoxy-4-((1-(2-methylbenzyl)-1H-1,2,3-triazol-4-yl)methoxy)benzylidene)acetohydrazide] yielded an IC50 [2] of 28 ± 0.1 µM.

Work on `COc1cc(C=NNC(=O)CC#N)ccc1OCc1cn(Cc2ccc(C)cc2)nn1` [Compound 9g, 2-Cyano-N′-(3-methoxy-4-((1-(4-methylbenzyl)-1H-1,2,3-triazol-4-yl)methoxy)benzylidene)acetohydrazide] yielded an IC50 [2] of 22.8 ± 0.6 µM.

`N#CCC(=O)NN=Cc1ccc(OCc2cn(Cc3ccccc3)nn2)cc1` [Compound 9h, N′-(4-((1-benzyl-1H-1,2,3-triazol-4-yl)methoxy)benzylidene)-2-cyanoacetohydrazide] gave an IC50 [2] of 271.2 ± 0.3 µM.

In the case of `N#CCC(=O)NN=Cc1ccc(OCc2cn(Cc3ccccc3F)nn2)cc1` [Compound 9i, 2-Cyano-N′-(4-((1-(2-fluorobenzyl)-1H-1,2,3-triazol-4-yl)methoxy)benzylidene)acetohydrazide], the type of inhibition (α-glucosidase [3]) is reported as “competitive inhibition”, the Ki (α-glucosidase [3]) is reported as 75 µM and the IC50 [2] is reported as 45.89 ± 0.1 µM.

Work on `N#CCC(=O)NN=Cc1ccc(OCc2cn(Cc3ccc(F)cc3)nn2)cc1` [Compound 9j, 2-Cyano-N′-(4-((1-(4-fluorobenzyl)-1H-1,2,3-triazol-4-yl)methoxy)benzylidene)acetohydrazide] yielded an IC50 [2] of 56.6 ± 0.7 µM.

For `N#CCC(=O)NN=Cc1ccc(OCc2cn(Cc3ccccc3Cl)nn2)cc1` [Compound 9k, N′-(4-((1-(2-chlorobenzyl)-1H-1,2,3-triazol-4-yl)methoxy)benzylidene)-2-cyanoacetohydrazide], the IC50 [2] was 74.7 ± 2.8 µM.

With `N#CCC(=O)NN=Cc1ccc(OCc2cn(Cc3ccc(Cl)cc3)nn2)cc1` [Compound 9l, N′-(4-((1-(4-chlorobenzyl)-1H-1,2,3-triazol-4-yl)methoxy)benzylidene)-2-cyanoacetohydrazide] the type of inhibition (α-glucosidase [3]) was “competitive inhibition”, the Ki (α-glucosidase [3]) was 85 µM and the IC50 [2] was 21.66 ± 0.12 µM.

For `Cc1ccccc1Cn1cc(COc2ccc(C=NNC(=O)CC#N)cc2)nn1` [Compound 9m, 2-Cyano-N′-(4-((1-(2-methylbenzyl)-1H-1,2,3-triazol-4-yl)methoxy)benzylidene)acetohydrazide], the IC50 [2] was 11.3 ± 0.2 µM.

`Cc1ccc(Cn2cc(COc3ccc(C=NNC(=O)CC#N)cc3)nn2)cc1` [Compound 9n, 2-Cyano-N′-(4-((1-(4-methylbenzyl)-1H-1,2,3-triazol-4-yl)methoxy)benzylidene)acetohydrazide] showed an IC50 [2] of 82.4 ± 1.3 µM.

In the case of `O=c1oc2ccccc2c(O)c1C(c1ccc(OCc2cn(Cc3ccccc3Cl)nn2)cc1)c1c(O)c2ccccc2oc1=O` [Compound A], the mode of inhibition (α-glucosidase [1]) is listed as “competitive”.

In the case of `O=C1Nc2ccccc2/C1=N/N=C/c1ccc(OCc2cn(Cc3ccccc3F)nn2)cc1` [Compound C], the “fold improvement in the inhibitory activity compared to acarbose” value (α-glucosidase [1]) is given as 46 fold.

From PMC9125976, “Cyanoacetohydrazide linked to 1,2,3-triazole derivatives: a new class of α-glucosidase inhibitors” (Scientific Reports, 2022)
